Assay results from ChEMBL document CHEMBL2016532, “Novel potent dual inhibitors of CK2 and Pim kinases with antiproliferative activity against cancer cells” (Bioorg Med Chem Lett, 2012).

Legend:
[1] = target: Serine/threonine-protein kinase pim-1 (Homo sapiens, UniProt P11309); test: Inhibition of human recombinant Pim1 using RSRHSSYPAGT as substrate and 30 uM ATP by radiometric assay
[2] = target: Serine/threonine-protein kinase pim-2 (Homo sapiens, UniProt Q9P1W9); test: Inhibition of human recombinant Pim2 using RSRHSSYPAGT as substrate and 5 uM ATP by radiometric assay
[3] = target: Casein kinase II alpha/beta (Homo sapiens, UniProt P68400); assay type: protein-complex assay
BXPC-3 = test: Antiproliferative activity against human BxPC3 cells after 48 hrs by alamar blue assay; assay type: functional, cell-based; details: BXPC-3, 48 h
[4] = Antiproliferative activity against human SUM149PT cells after 48 hrs by alamar blue assay; assay type: functional, cell-based
K562 = test: Antiproliferative activity against human K562 cells after 48 hrs by alamar blue assay; assay type: functional, cell-based; details: K562, 48 h
MV4-11 = test: Antiproliferative activity against human MV411 cells after 48 hrs by alamar blue assay; assay type: functional, cell-based; details: MV4-11, 48 h
[5] = tested on: MDA-MB-453 (Homo sapiens); test: Antiproliferative activity against human MDA-MB-453 cells after 48 hrs by alamar blue assay; details: MDA-MB-453, 48 h
[6] = target: T1, Receptor-type tyrosine-protein kinase FLT3 (Homo sapiens, UniProt P36888); test: Inhibition of Flt3
T1 sequence (P36888 whole entry): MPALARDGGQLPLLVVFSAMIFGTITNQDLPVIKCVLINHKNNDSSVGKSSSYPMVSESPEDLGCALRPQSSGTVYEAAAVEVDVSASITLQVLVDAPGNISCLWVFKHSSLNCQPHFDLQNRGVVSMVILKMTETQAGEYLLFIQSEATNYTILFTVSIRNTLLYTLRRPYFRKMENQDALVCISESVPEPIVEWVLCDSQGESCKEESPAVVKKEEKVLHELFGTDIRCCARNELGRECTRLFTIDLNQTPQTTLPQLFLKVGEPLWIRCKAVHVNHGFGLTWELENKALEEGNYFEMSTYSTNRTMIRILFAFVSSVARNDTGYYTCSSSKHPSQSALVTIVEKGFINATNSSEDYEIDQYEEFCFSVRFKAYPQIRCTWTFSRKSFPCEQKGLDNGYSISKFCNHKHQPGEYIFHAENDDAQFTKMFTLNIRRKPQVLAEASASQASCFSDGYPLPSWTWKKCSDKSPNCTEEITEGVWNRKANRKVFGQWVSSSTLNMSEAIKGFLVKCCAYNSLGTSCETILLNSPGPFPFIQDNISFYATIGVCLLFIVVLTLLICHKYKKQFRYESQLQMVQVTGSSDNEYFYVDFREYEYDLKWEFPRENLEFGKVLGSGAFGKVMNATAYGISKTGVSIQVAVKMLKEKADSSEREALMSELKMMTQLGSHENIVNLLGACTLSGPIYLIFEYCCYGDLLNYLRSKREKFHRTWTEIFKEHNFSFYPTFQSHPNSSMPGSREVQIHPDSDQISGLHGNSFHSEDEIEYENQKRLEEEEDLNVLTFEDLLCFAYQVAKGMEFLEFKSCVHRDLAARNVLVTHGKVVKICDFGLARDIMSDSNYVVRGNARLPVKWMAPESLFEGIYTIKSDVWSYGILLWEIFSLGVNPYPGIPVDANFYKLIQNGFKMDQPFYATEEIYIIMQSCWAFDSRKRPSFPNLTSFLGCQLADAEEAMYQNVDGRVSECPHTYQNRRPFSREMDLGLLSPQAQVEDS

Chain of Serine/threonine-protein kinase pim-1 (P11309 whole entry): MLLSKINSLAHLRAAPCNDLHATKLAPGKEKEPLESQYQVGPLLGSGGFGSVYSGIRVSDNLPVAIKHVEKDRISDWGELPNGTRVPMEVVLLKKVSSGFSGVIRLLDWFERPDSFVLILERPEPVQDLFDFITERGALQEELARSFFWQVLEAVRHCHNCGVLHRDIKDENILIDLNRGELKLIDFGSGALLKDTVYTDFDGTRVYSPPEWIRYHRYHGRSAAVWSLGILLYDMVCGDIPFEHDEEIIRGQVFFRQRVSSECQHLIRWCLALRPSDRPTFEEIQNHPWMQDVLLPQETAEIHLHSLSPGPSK
Chain of Serine/threonine-protein kinase pim-2 (Q9P1W9 whole entry): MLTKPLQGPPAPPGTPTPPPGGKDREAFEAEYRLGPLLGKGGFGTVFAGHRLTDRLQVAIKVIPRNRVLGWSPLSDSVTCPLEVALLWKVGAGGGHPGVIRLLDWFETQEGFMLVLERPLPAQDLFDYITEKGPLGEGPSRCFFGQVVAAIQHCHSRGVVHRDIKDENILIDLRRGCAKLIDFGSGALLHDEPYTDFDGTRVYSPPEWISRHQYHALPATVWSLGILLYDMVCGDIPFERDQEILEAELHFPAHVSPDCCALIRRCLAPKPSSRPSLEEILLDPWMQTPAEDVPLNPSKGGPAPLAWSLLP
Chain of Casein kinase II alpha/beta (P67870 whole entry): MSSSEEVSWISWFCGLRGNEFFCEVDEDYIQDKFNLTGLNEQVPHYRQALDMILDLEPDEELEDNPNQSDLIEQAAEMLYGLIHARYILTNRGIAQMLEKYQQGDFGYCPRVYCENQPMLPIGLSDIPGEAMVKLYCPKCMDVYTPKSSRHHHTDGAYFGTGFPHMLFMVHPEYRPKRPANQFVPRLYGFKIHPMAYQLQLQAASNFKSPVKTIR
Chain of Casein kinase II alpha/beta (P68400 whole entry): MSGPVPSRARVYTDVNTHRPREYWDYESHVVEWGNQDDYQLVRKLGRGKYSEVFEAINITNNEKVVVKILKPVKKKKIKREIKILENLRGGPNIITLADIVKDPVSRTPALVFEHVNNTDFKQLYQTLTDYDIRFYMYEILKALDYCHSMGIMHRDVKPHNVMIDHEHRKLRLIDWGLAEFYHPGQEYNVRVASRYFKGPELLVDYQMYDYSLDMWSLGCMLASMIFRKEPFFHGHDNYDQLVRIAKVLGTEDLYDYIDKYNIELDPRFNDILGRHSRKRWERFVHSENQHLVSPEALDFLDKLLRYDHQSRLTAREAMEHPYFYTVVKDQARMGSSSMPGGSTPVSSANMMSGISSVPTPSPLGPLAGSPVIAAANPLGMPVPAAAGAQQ

IC50 [1] [µM]	IC50 [2] [µM]	IC50 [3] [µM]	EC50 (BXPC-3) [µM]	EC50 (K562) [µM]	EC50 (MV4-11) [µM]	EC50 [5] [µM]	IC50 [6] [µM]	SMILES	EC50 [4] [µM]
0.004	0.015	0.01	> 30	6.1	2	7.8	–	c1ccc(Nc2nc3c(-c4nnc[nH]4)cccc3c3sccc23)cc1	7
0.003	0.002	0.009	11.7	3.6	0.5	2.6	> 10	Clc1ccccc1Nc1nc2c(-c3nnc[nH]3)cccc2c2sccc12	4.4
0.002	0.002	0.004	> 30	3.6	0.6	7.1	–	Fc1ccccc1Nc1nc2c(-c3nnc[nH]3)cccc2c2sccc12	9.5
0.027	0.017	0.01	–	–	–	–	–	c1ccc(Nc2nc3c(-c4nnc[nH]4)cccc3c3cscc23)cc1	–
0.007	0.008	0.02	4.5	> 10	0.6	4.9	> 10	Clc1ccccc1Nc1nc2c(-c3nnc[nH]3)cccc2c2cscc12	2.6
0.016	0.014	0.03	–	–	–	–	–	c1ccc(Nc2nc3c(-c4nnc[nH]4)cccc3c3ccsc23)cc1	–
0.004	0.006	0.021	16.1	> 10	3.2	1.3	> 10	Clc1ccccc1Nc1nc2c(-c3nnc[nH]3)cccc2c2ccsc12	2.6
0.008	0.009	0.039	2.8	> 10	4.7	2	–	Clc1ccccc1Nc1nc2c(-c3nnc[nH]3)cccc2c2scnc12	12.6
0.014	0.03	0.101	–	–	–	–	–	c1ccc(Nc2nc3c(-c4nnc[nH]4)cccc3n3cccc23)cc1	–
0.012	0.041	0.089	–	–	–	–	> 10	Clc1ccccc1Nc1nc2c(-c3nnc[nH]3)cccc2n2cccc12	–
0.008	0.02	0.089	> 30	8.2	3.7	28.4	–	Fc1ccccc1Nc1nc2c(-c3nnc[nH]3)cccc2n2cccc12	22.8
0.038	0.043	0.035	15	5.4	0.1	3.1	–	Fc1ccccc1Nc1nc2c(-c3nnc[nH]3)cccc2n2cncc12	5.4
0.015	0.025	0.062	–	–	–	–	–	c1cc(-c2nnc[nH]2)c2nc(NC3CC3)c3ccsc3c2c1	–
0.035	0.01	0.128	–	–	–	–	–	c1cc(-c2nnc[nH]2)c2nc(N3CCOCC3)c3ccsc3c2c1	–
0.004	0.052	0.048	–	–	–	–	–	c1ccc(CNc2nc3c(-c4nnc[nH]4)cccc3c3sccc23)cc1	–
0.017	0.022	0.076	–	–	–	–	–	c1cncc(Nc2nc3c(-c4nnc[nH]4)cccc3c3sccc23)c1	–
0.091	0.068	0.216	–	–	–	–	–	c1cc(-c2nnc[nH]2)c2nc(Nc3ccncc3)c3ccsc3c2c1	–
0.006	0.006	0.015	–	–	–	–	–	Clc1cccc(Nc2nc3c(-c4nnc[nH]4)cccc3c3sccc23)c1	–
0.014	0.086	0.033	–	–	–	–	–	Clc1ccc(Nc2nc3c(-c4nnc[nH]4)cccc3c3sccc23)cc1	–
0.014	0.004	0.01	–	–	–	–	–	Oc1ccc(Nc2nc3c(-c4nnc[nH]4)cccc3c3sccc23)c(Cl)c1	–

IC50 [1] [µM]	IC50 [2] [µM]	IC50 [3] [µM]	EC50 (BXPC-3) [µM]	EC50 (K562) [µM]	EC50 (MV4-11) [µM]	EC50 [5] [µM]	IC50 [6] [µM]	SMILES	EC50 [4] [µM]
0.009	0.009	0.052	–	–	–	–	–	Fc1ccc(Nc2nc3c(-c4nnc[nH]4)cccc3c3sccc23)c(Cl)c1	–
0.005	0.021	0.017	–	–	–	–	–	COc1cccc(Nc2nc3c(-c4nnc[nH]4)cccc3c3sccc23)c1Cl	–
0.009	0.024	0.151	–	–	–	–	–	Fc1cc(F)cc(Nc2nc3c(-c4nnc[nH]4)cccc3c3sccc23)c1	–
0.064	0.076	0.075	–	–	–	–	–	FC(F)(F)Oc1ccc(Nc2nc3c(-c4nnc[nH]4)cccc3c3sccc23)c(Cl)c1	–
0.003	0.005	0.007	9.1	> 10	4.6	2.6	–	Fc1cccc(Nc2nc3c(-c4nnc[nH]4)cccc3c3sccc23)c1	8.1
0.004	0.007	0.007	> 30	> 10	> 10	6.6	–	Fc1ccc(Nc2nc3c(-c4nnc[nH]4)cccc3c3sccc23)cc1	> 30
0.002	0.002	0.011	> 30	4.8	1.7	4.6	–	Fc1ccc(Nc2nc3c(-c4nnc[nH]4)cccc3c3sccc23)c(F)c1	> 30
0.009	0.015	0.077	–	–	–	–	–	Fc1ccc(Nc2nc3c(-c4nnc[nH]4)cccc3c3sccc23)cc1F	–
0.007	0.049	0.084	–	–	–	–	–	COc1ccccc1Nc1nc2c(-c3nnc[nH]3)cccc2c2sccc12	–
0.011	0.028	0.011	–	–	–	–	–	COc1cccc(Nc2nc3c(-c4nnc[nH]4)cccc3c3sccc23)c1	–
0.004	0.006	0.005	28	7.2	6.5	7.4	–	COc1ccc(Nc2nc3c(-c4nnc[nH]4)cccc3c3sccc23)cc1	8.2
0.016	0.034	0.136	–	–	–	–	–	CN(C)CCOc1ccc(Nc2nc3c(-c4nnc[nH]4)cccc3c3sccc23)cc1	–
0.016	0.052	0.024	–	–	–	–	–	FC(F)(F)c1cccc(Nc2nc3c(-c4nnc[nH]4)cccc3c3sccc23)c1	–
0.01	0.012	0.126	–	–	–	–	–	N#Cc1cccc(Nc2nc3c(-c4nnc[nH]4)cccc3c3sccc23)c1	–
0.006	0.005	0.002	24.6	6.7	5.4	9.3	–	C#Cc1cccc(Nc2nc3c(-c4nnc[nH]4)cccc3c3sccc23)c1	9.6
0.017	0.017	0.139	–	–	–	–	–	NC(=O)c1ccc(Nc2nc3c(-c4nnc[nH]4)cccc3c3sccc23)cc1	–
0.069	0.121	0.139	–	–	–	–	–	O=C(O)c1cccc2c1nc(Nc1ccccc1Cl)c1ccsc12	–
0.005	0.012	0.022	–	–	–	–	–	NC(=O)c1cccc2c1nc(Nc1ccccc1Cl)c1ccsc12	–
0.005	0.028	0.048	–	–	–	–	5.3	CNC(=O)c1cccc2c1nc(Nc1ccccc1Cl)c1ccsc12	–
0.015	0.006	0.026	–	–	–	–	–	Cc1cc2c(Nc3ccccc3F)nc3c(-c4nnc[nH]4)cccc3c2s1	–
